Patent US20230405156A1, “METHODS OF DIAGNOSING AND PROGNOSING CANCERS OF THE HEAD AND NECK” (priority 2021, published 2023)

How the values were obtained:
SSTR = conditions: five patients with primary EBV-positive NPC; cited from earlier work
[1] = test system: SSTR2 expression in C666-1 cells; experiment: SSTR2 expression in C666-1 cells under pathway inhibitors; assay type: cell-based
[2] = test system: LMP1-induced SSTR2 expression in NP69 cells; experiment: LMP1-induced SSTR2 expression in NP69 cells under pathway inhibitors; assay type: cell-based, human; conditions: NP69 cells expressing LMP1
Source text: FIGS. 2A-2K. EBV infection is associated with SSTR2 upregulation in NPC—in vitro experiments and external validation dataset. a Immunofluorescence analysis of EBNA1 (red) and SSTR2 (green) expression in two representative examples of cultured primary respiratory epithelial cells before and after infection with the epitheliotropic M81 EBV strain. Nuclei are counterstained with DAPI (blue); Replication (n=5). b Percentages of cells positive for EBNA1 or co-expression of SSTR2 and EBNA1 c LMP1 induces SSTR2 expression in NP69, an immortalized normal nasopharyngeal epithelial cell line (relative quantities of SSTR2 were calculated using the comparative threshold cycle method and normalized using human beta-actin as endogenous control. Data is presented as a ratio relative to vector control). d LMP1-mediated SSTR2 induction in NP69 cells is inhibited by ectopic expression of TRAF3, a negative regulator of NF-κB. e In NP69 cells, LMP1-induced SSTR2 expression is suppressed by the NF-κB inhibitor BAY 11-7085 and MEK inhibitor U0126. f Both CTAR1 and CTAR2 regions of LMP1 (FIG. 6) are essential for LMP1-mediated SSTR2 induction. […] The color of the samples is based on unsupervised hierarchical clustering. […] Middle panel, Microarray SSTR2 expression is positively correlated with viral LMP1 expression (W=129, p=0.041, Wilcoxon two-sided test). […]

C666-1 cells [3] = experiment: MTT-based cell viability assay (in vitro proliferation/survival); conditions: 7 days, dilutions starting from 10 μM
Procedure: (§1) Culture of the cell lines. C666-1 cells were cultured in RPMI-1640 with 25 mM Hepes (Lonza, Berlin, Germany) supplemented with 10% heat-inactivated FCS (Gibco, Carlsbad, CA), 2 mM L-Glutamine, 100 units/ml penicillin (Gibco), and 0.1 mg/ml streptomycin (Gibco). Cells were maintained at 37° C., 5% CO2 and passaged every 7 days at a 1:2 ratio using accutase (Sigma, St. Louis, MO, USA). Seventy-five percent of culture medium was replaced by fresh medium every 2-3 days. NPC43 and C17 cell lines were cultured in RPMI-1640 with 25 mM Hepes (Lonza, Berlin, Germany) supplemented with 10% heat-inactivated FCS (Gibco, Carlsbad, CA), 2 mM L-Glutamine, 100 units/ml penicillin (Gibco) and 0.1 mg/ml streptomycin (Gibco) and 4 μM Y27632 (Promocell, Heidelberg, Germany). Cells were maintained at 37° C., 5% CO2 and passaged 5 days at a 1:4 ratio using accutase (Sigma, St. Louis, MO, USA). Culture medium was replaced by fresh medium every 2 to 3 days.
(§2) MTT-based cell viability assay. Two days prior addition of test compounds, NPC cells were plated at a density of 2×10^4 cells/well in 96-well plates. Compounds were prepared as advised by manufacturers, diluted half logarithmic in medium and added to the wells in quadruplicate starting from 10 μM (30 μM for cisplatin). PEN-211 containing medium was removed after 2 h, cells were washed with PBS and fresh medium was added. Plates were incubated in a humified chamber for 7 days; 50% of medium were exchanged every other day with fresh drug dilutions. MTT (3-[4,5-dimethylthiazol-2-yl]-2,5 diphenyl tetrazolium bromide) reagent (20 μl/well of 5 mg/ml solution) (Sigma-Aldrich) was added and solubilized after 4 h using 100 μl of a […] SDS/0.01M HCl solution. Dual absorbance was measured after 5 h in a microplate reader (Epoch BioTek, BioTek Instruments, Bad Friedrichshall, Germany) using 550 nm as measurement and 655 nm as reference filter. After subtraction of background absorbance, fractions of surviving cells were obtained by normalization to the mean of nontreated samples.

NPC43 cells = experiment: as above; conditions: 7 days, dilutions starting from 10 μM
Procedure: as §1, §2

C666-1 cells [4] = experiment: RNA-seq analysis of C666-1 cells treated with SSTR2-targeted drugs; assay type: cell-based; conditions: for cell senescence pathways (geneset enrichment) / pathways related to somatostatin biology such as interleukin signaling (geneset enrichment) / cell death/apoptotic pathways (geneset enrichment): 24 h post-treatment; for cell death/apoptotic pathways (geneset enrichment): lanreotide or octreotide; for SSTR2 expression (RNA-seq): lanreotide or octreotide treatment
Procedure: RNA-seq analysis. C666-1 cells were seeded at a density of 1×10^6/well in six-well plates 2 days prior to compound addition. […] Untreated and DMSO-treated (1:2000 in medium) wells were used as controls. 24 and 72 h post-PEN-221 addition, DNA and RNA extraction was performed from separate wells using Quick-DNA Plus and Direct-zol RNA Plus Kit (Zymo Research, Irvine, CA, USA) according to the manufacturers' instructions.
RNA concentration was normalized to 100 ng/50 μl and Illumina libraries prepared using a NEBNext Poly(A) mRNA Magnetic Isolation Module in conjunction with a NEBNext Ultra II Directional RNA Library Prep Kit (New England Biolabs), according to the manufacturer's instructions using adapters diluted 1:50. Libraries were quantitated using the Agilent High Sensitivity D1000 ScreenTape System on a 2200 Tapestation (Agilent), pooled at equimolar concentration, denatured and sequenced on a NextSeq 500 (Illumina). RNA sequencing transcript abundance was estimated from fastq files using the reference-free quantification tool salmon with the gencode GRCh37 transcript annotation. Differential expression analysis was performed using DESeq237 with treatment, time and batch (where applicable) as covariates. Geneset enrichment analysis was performed using the GSEA function from clusterProfiler, with the reactome database pathways on the gene DESeq2 Wald statistics and a minimum and maximum pathway size of 25 and 500, respectively.

SMILES	tumor uptake (SSTR)	SSTR2 expression [1]	LMP1-induced SSTR2 expression [2]	in vitro proliferation (C666-1 cells [3])	in vitro proliferation (NPC43 cells)	cell senescence pathways (geneset enrichment) (C666-1 cells [4])	pathways related to somatostatin biology such as interleukin signaling (geneset enrichment) (C666-1 cells [4])	cell death/apoptotic pathways (geneset enrichment) (C666-1 cells [4])	cell senescence pathways (geneset enrichment) (C666-1 cells [4]; listed as Lanreotide)	SSTR2 expression (RNA-seq) (C666-1 cells [4])
C[C@@H](O)[C@@H]1NC(=O)[C@H](CCCCN)NC(=O)[C@@H](Cc2c[nH]c3ccccc23)NC(=O)[C@H](Cc2ccc(O)cc2)NC(=O)[C@@H](NC(=O)[C@@H](Cc2ccccc2)NC(=O)CN2CCN(CC(=O)[O-])CCN(CC(=O)[O-])CCN(CC(=O)[O-])CC2)CSSC[C@@H](C(=O)N[C@H](CO)[C@@H](C)O)NC1=O.[68Ga+3] [68Ga-DOTA-(Tyr3)-octreotide, ^68Ga-labeled 1,4,7,10-tetraazacyclododecane-N,N9,N99,N999 tetraacetic acid-D-Phe1-Tyr3-octreotide (DOTA-TOC)]	increased uptake									
CC(C)(C)c1ccc(S(=O)(=O)/C=C/C#N)cc1 [BAY 11-7085]		suppressed	suppressed							
N#CC(=C(/N)Sc1ccccc1N)/C(C#N)=C(\N)Sc1ccccc1N [U0126]		suppressed	suppressed							
CC(C)[C@@H]1NC(=O)[C@H](CCCCN)NC(=O)[C@@H](Cc2c[nH]c3ccccc23)NC(=O)[C@H](Cc2ccc(O)cc2)NC(=O)[C@@H](NC(=O)[C@H](N)Cc2ccc3ccccc3c2)CSSC[C@@H](C(=O)N[C@H](C(N)=O)[C@@H](C)O)NC1=O [lanreotide]				did not affect in vitro proliferation	did not affect in vitro proliferation	upregulation of senescence pathways	induced upregulation	no changes	upregulation of cell senescence pathways	did not affect SSTR2 expression
C[C@@H](O)[C@@H]1NC(=O)[C@H](CCCCN)NC(=O)[C@@H](Cc2c[nH]c3ccccc23)NC(=O)[C@H](Cc2ccccc2)NC(=O)[C@@H](NC(=O)[C@H](N)Cc2ccccc2)CSSC[C@@H](C(=O)N[C@H](CO)[C@@H](C)O)NC1=O [octreotide]				did not affect in vitro proliferation	did not affect in vitro proliferation	upregulation of cell senescence pathways	induced upregulation	no changes		did not affect SSTR2 expression
